Results published in article PMC8491704, “Pharmacokinetic study of Tangwang Mingmu granule for the management of diabetic retinopathy based on network pharmacology” (Pharmaceutical Biology, 2021).
Read-outs that look alike come from different tables or passages of the source.

Assays:
[1] = Pharmacokinetic study in SD rats after oral administration of TWMM (UPLC-QQQ-MS of plasma); type: in vivo, Sprague-Dawley (SD) rats; conditions: oral TWMM 9.6 g/kg
Protocol: Chromatographic separation was performed using an ACQUITY UPLC H-Class system equipped with a 1.8 μm HSS T3 analytical column (100 mm × 2.1 i.d., Waters Corporation, Milford, USA). […] ESI source was set to negative ionisation mode while the analysis was performed using multiple reaction monitorin. Ion spray voltage (3000 V), capillary temperature (450 °C), and the source parameters of the nine compounds are shown in Table 2.
The data obtained from the UPLC/Q-Orbitrap MS was imported into Xcalibur 4.0 software for analysis. Furthermore, the constituents acquired using GCMS-QP 2010 were profiled by comparison using the National Institute of Standards and Technology (NIST) database. The pharmacokinetic data were processed through MassLynx 4.1, and DAS 2.0 software was used to calculate the pharmacokinetic parameters according to the compartment model.
Six male SD rats (average weight: 220 ± 10 g) were acquired from Beijing Vital-River Laboratory Animal Technology Co., Ltd. All rats were acclimatized to an environmentally controlled laboratory for a week. Following this period, the rats were exposed to fasting conditions for 12 h but were allowed free access to water before the experiment. The rats were orally administered TWMM at a dose of 9.6 g/kg. Blood samples (300 µL) were collected into heparinized centrifuge tubes from the fossa orbitalis at pre-dose and 0.03, 0.08, 0.17, 0.25, 0.5, 1, 2, 4, 8, 12, 24, and 36 h intervals. The samples were immediately centrifuged at 6000 g for 10 min at 4 °C and the supernatants were transferred to clean centrifuge tubes.
Each 100 µL plasma sample was mixed with 20 µL of methanol, 20 µL of IS (5 µg/mL), and 600 µL acetonitrile. The mixtures were centrifuged at 15,000 g for 10 min at 4 °C after being vortexed for 3 min. The obtained supernatants were transferred to clean 1.5 mL centrifuge tubes, followed by evaporation under a milt nitrogen stream. Next, the obtained residues were individually redissolved in 100 µL of methanol and centrifuged at 15,000 g for 10 min at 4 °C after vortexed for 3 min. Lastly, 10 µL of individual supernatant was injected for analysis.

[2] = Stability of QC samples of 8 compounds in rat plasma (25 °C 4 h, autosampler 12 h, three freeze-thaw cycles, −80 °C 7 d); type: in vitro ADME
Protocol: The calibration curves were assessed at eight concentration levels using the correlation coefficient (r). The lower limit of quantification (LLOQ) could fulfil the analytical requirements and achieved reliable accuracy and precision with a signal-to-noise ratio (S/N) ≥ 10. To determine intra- and inter-day precision and accuracy, six replicate quality control (QC) samples at three concentrations were prepared. Inter- and intra-day precision was evaluated by determining relative standard deviation (RSD) values, while accuracy was expressed in terms of the relative error (RE). The extraction recoveries were determined using three concentration levels and calculated by comparing the peak area of extracted samples with post-extracted spiked samples. Subsequently, matrix effects were assessed using the peak area of post-extracted spiked samples contrasted with QC samples at the three concentration levels. The stability test of QC samples at the three concentration levels was as follows: storage at 25 °C for 4 h, storage in an autosampler for 12 h, freeze-thaw cycle for three times, and storage at −80 °C for 7 d.
The stability tests were carried out under three freeze-thaw cycles, at 25 °C for 4 h, in an autosampler for 12 h, and at −80 °C for 7 d.

Molecule: Jaspolyside
- areas under the concentration-time curve (AUC0–∞) [1]: 53.4 ± 32.2 ng·h/mL
- AUC (0–36) ([1]; n = 6): 46.59 ± 9.58 ng·h/mL
- AUC (0–∞) ([1]; n = 6): 53.37 ± 32.17 ng·h/mL
- Cmax ([1]; n = 6): 14.25 ± 3.67 ng/mL
- MRT (0–36) ([1]; n = 6): 11.42 ± 1.29 h
- MRT (0–∞) ([1]; n = 6): 15.62 ± 10.83 h
- Tmax ([1]; n = 6): 0.38 ± 0.31 h
- t1/2 ([1]; n = 6): 29.15 ± 12.65 h
- Tmax ([1]; n = 6, listed as jaspolyside): ≤ 1 h

Molecule: COc1ccc(-c2cc(=O)c3c(O)cc(O[C@@H]4O[C@H](CO[C@@H]5O[C@@H](C)[C@H](O)[C@@H](O)[C@H]5O)[C@@H](O)[C@H](O)[C@H]4O)cc3o2)cc1 [Linarin]
- AUC (0–36) ([1]; n = 6): 12.04 ± 4.72 ng·h/mL
- AUC (0–∞) ([1]; n = 6): 12.04 ± 4.72 ng·h/mL
- Cmax ([1]; n = 6): 12.78 ± 8.82 ng/mL
- MRT (0–36) ([1]; n = 6): 4.26 ± 2.67 h
- MRT (0–∞) ([1]; n = 6): 4.26 ± 2.68 h
- Tmax ([1]; n = 6): 0.16 ± 0.10 h
- t1/2 ([1]; n = 6): 2.81 ± 0.21 h
- Tmax ([1]; n = 6, listed as linarin): ≤ 1 h
- t1/2 ([1]; n = 6, listed as linarin): rapid elimination
- Stability in rat plasma, Autosampler (12 h, 4 °C), Measured ([2]; QC concentration 1 ng/mL, autosampler 12 h, 4 °C, rat plasma, n = 3): 1.1 ± 0.1 ng/mL
- Stability in rat plasma, Long term (7 day, –80 °C), Measured ([2]; QC concentration 1 ng/mL, long term 7 day, –80 °C, rat plasma, n = 3): 1.1 ± 0.1 ng/mL
- Stability in rat plasma, Room temperature (4 h, 25 °C), Measured ([2]; QC concentration 1 ng/mL, room temperature 25 °C, rat plasma, n = 3): 1.0 ± 0.1 ng/mL
- Stability in rat plasma, Three freeze/thaw cycles, Measured ([2]; QC concentration 1 ng/mL, three freeze/thaw cycles, rat plasma, n = 3): 1.0 ± 0.0 ng/mL
- Stability in rat plasma, Autosampler (12 h, 4 °C), Measured ([2]; QC concentration 10 ng/mL, autosampler 12 h, 4 °C, rat plasma, n = 3): 10.2 ± 0.6 ng/mL
- Stability in rat plasma, Long term (7 day, –80 °C), Measured ([2]; QC concentration 10 ng/mL, long term 7 day, –80 °C, rat plasma, n = 3): 10.2 ± 0.4 ng/mL
- Stability in rat plasma, Room temperature (4 h, 25 °C), Measured ([2]; QC concentration 10 ng/mL, room temperature 25 °C, rat plasma, n = 3): 11.9 ± 0.1 ng/mL
- Stability in rat plasma, Three freeze/thaw cycles, Measured ([2]; QC concentration 10 ng/mL, three freeze/thaw cycles, rat plasma, n = 3): 11.6 ± 0.5 ng/mL
- Stability in rat plasma, Autosampler (12 h, 4 °C), Measured ([2]; QC concentration 200 ng/mL, autosampler 12 h, 4 °C, rat plasma, n = 3): 208.5 ± 2.0 ng/mL
- Stability in rat plasma, Long term (7 day, –80 °C), Measured ([2]; QC concentration 200 ng/mL, long term 7 day, –80 °C, rat plasma, n = 3): 221.0 ± 11.2 ng/mL
- Stability in rat plasma, Room temperature (4 h, 25 °C), Measured ([2]; QC concentration 200 ng/mL, room temperature 25 °C, rat plasma, n = 3): 223.3 ± 5.0 ng/mL
- Stability in rat plasma, Three freeze/thaw cycles, Measured ([2]; QC concentration 200 ng/mL, three freeze/thaw cycles, rat plasma, n = 3): 219.4 ± 13.8 ng/mL

Molecule: O=C(/C=C/c1ccc(O)c(O)c1)O[C@@H]1C[C@](O)(C(=O)O)C[C@@H](O)[C@H]1O [Chlorogenic acid]
- half-life ([1]; male, Sprague-Dawley, rat, n = 6): 2.71 ± 0.11 h
- AUC(0-t) ([1]; male, Sprague-Dawley, rat, n = 6, read-out: AUC (0–36)): 34 ± 4.55 ng·h/mL
- Cmax ([1]; male, Sprague-Dawley, rat, n = 6, read-out: Cmax): 16.1 ± 4.17 ng/mL
- MRT last ([1]; male, Sprague-Dawley, rat, n = 6, read-out: MRT (0–36)): 4.97 ± 0.71 h
- MRT inf ([1]; male, Sprague-Dawley, rat, n = 6, read-out: MRT (0–∞)): 4.97 ± 0.71 h
- AUC(0-inf) ([1]; male, Sprague-Dawley, rat, read-out: areas under the concentration-time curve (AUC0–∞)): 34 ± 4.55 ng·h/mL
- Tmax ([1]; male, Sprague-Dawley, rat, po, 9.6 g/kg, n = 6, read-out: Tmax): ≤ 1 h
- t1/2 ([1]; n = 6): rapid elimination
- Stability in rat plasma, Three freeze/thaw cycles, Measured ([2]; rat, plasma, 1 ng/mL): 1.1 ± 0.1 ng/mL
- Stability in rat plasma, Three freeze/thaw cycles, Measured ([2]; rat, plasma, 10 ng/mL): 9.8 ± 0.8 ng/mL
- Stability in rat plasma, Three freeze/thaw cycles, Measured ([2]; rat, plasma, 200 ng/mL): 212.6 ± 19.4 ng/mL
- Stability in rat plasma, Room temperature (4 h, 25 °C), Measured ([2]; rat, plasma, 1 ng/mL): 1.2 ± 0.1 ng/mL
- Stability in rat plasma, Room temperature (4 h, 25 °C), Measured ([2]; rat, plasma, 10 ng/mL): 9.2 ± 0.6 ng/mL
- Stability in rat plasma, Room temperature (4 h, 25 °C), Measured ([2]; rat, plasma, 200 ng/mL): 187.6 ± 4.2 ng/mL
- Stability in rat plasma, Autosampler (12 h, 4 °C), Measured ([2]; rat, plasma, 12 h, 1 ng/mL): 0.9 ± 0.1 ng/mL
- Stability in rat plasma, Autosampler (12 h, 4 °C), Measured ([2]; rat, plasma, 12 h, 10 ng/mL): 9.1 ± 1.1 ng/mL
- Stability in rat plasma, Autosampler (12 h, 4 °C), Measured ([2]; rat, plasma, 12 h, 200 ng/mL): 200.0 ± 14.0 ng/mL
- Stability in rat plasma, Long term (7 day, –80 °C), Measured ([2]; rat, plasma, 168 h, 1 ng/mL): 1.0 ± 0.1 ng/mL
- Stability in rat plasma, Long term (7 day, –80 °C), Measured ([2]; rat, plasma, 168 h, 10 ng/mL): 10.3 ± 0.5 ng/mL
- Stability in rat plasma, Long term (7 day, –80 °C), Measured ([2]; rat, plasma, 168 h, 200 ng/mL): 214.4 ± 10.5 ng/mL
